Measured values published in US10010560B2, “Small molecule HSP70 inhibitors” (THE TRUSTEES OF THE UNIVERSITY OF PENNSYLVANIA, priority 2014, dated 2018).

Tests used:
ADP-HSP70 (WT, aa 1-641) = molecular target: T1, ADP-HSP70 (WT, aa 1-641) (Homo sapiens, UniProt P0DMV8, E110D); test: ITC binding to ADP-bound full-length HSP70
T1 construct: Full-length recombinant proteins of HSP70 (aa 1-641) as well as DnaK (aa 1-638); His6 (N); made in house; host or cells: E. coli BL21 Star (DE3)
Excerpt: The human stress-inducible HSP70 (residues 1-641 or 386-616 of SEQ ID NO: 2) and E. coli DnaK (residues 1-638, 389-607, or 393-507 of SEQ ID NO: 4) were cloned into the pET25 vector (EMD Millipore Chemicals, Inc., Billerica, Mass., USA) between the NdeI and XhoI restriction sites. The full-length HSP70 and DnaK mutants were constructed by PCR-based site-directed mutagenesis using the QuikChange™ Site-Directed Mutagenesis Kit (Agilent Technologies, Inc., Santa Clara, Calif., USA). All plasmid inserts were verified by DNA sequencing. All HSP70 and DnaK variants were produced with a N-terminal His6-tag in the E. coli BL21 Star (DE3) strain (Invitrogen catalog number C6010-03). The resulting strains were grown at 37° C. in LB medium containing 50 μg/mL of carbenicillin (Sigma-Aldrich Co., St. Louis, Mo., USA). At an OD600 about 0.3 to about 0.5, protein expression was induced with 0.5 mM isopropyl-β-D-thiogalactopyranoside (IPTG), and cells were subsequently grown at 25° C. for about 16 h. Cells were collected by centrifugation and resuspended in the Bugbuster® Master Mix (EMD Millipore Chemicals catalog number 71456-4), supplemented with protease inhibitors, 1 mM diethiothreitol (DTT) and 20 mM imidazole. The His6-tagged fusion proteins were isolated on Ni^2+-chelating resins (Ni-NTA Superflow, Qiagen catalog number 30410) by standard procedures. When necessary, size-exclusion chromatography on a Superdex® 200 or a Superose® 6 10/300 GL columns (GE Healthcare) analytical column pre-equilibrated with 1× Dulbecco's Phosphate Buffered Saline (DPBS—Invitrogen 14190-136), 1 mM Tris-HCl (pH 7.4) or 10 mM Tris-HCl (pH 7) was used as the final purification step. The purified DnaK proteins were dialyzed thoroughly against 1× DPBS with 5 mM DTT at 4° C., for crystallization trials involving the small molecule inhibitor PET-16. For isothermal titration calorimetry studies, all HSP70 and DnaK variants were dialyzed extensively against the buffers as noted below under the section entitled “Isothermal Titration calorimetry Studies”. The dialyzed proteins were subsequently microcentrifugated at 15,000×g for 5 min at 4° C. and aliquots of the soluble proteins were stored at −80° C.
All ITC experiments were performed using a MicroCal VP-ITC isothermal titration calorimeter (MicroCal). Both full-length HSP70 and DnaK proteins and DnaK (aa 393-507) proteins were prepared in 1 mM Tris-HCl (pH 7.4) buffer containing 3% dimethylsulfoxide (DMSO). The HSP70 (aa 386-616) protein was prepared in buffer containing 3% DMSO and 10 mM Tris-HCl, pH 7. The syringe was loaded with purified protein in either 1 mM Tris-HCl (pH 7.4) buffer containing 3% DMSO or 10 mM Tris-HCl (pH 7) buffer containing 3% DMSO. The sample cell of the calorimeter was loaded with PES, PET-16 or NRLLLTG (SEQ ID NO: 7) prepared in the same buffer. All solutions were degassed for 5 min.
The titrations involving the full-length purified proteins were performed at 25° C. with injection volumes of 12 μL and a spacing of 300 s. The titrations involving the purified HSP70 (aa 386-616) and DnaK (aa 393-507) were performed at 42° C. with injection volumes of 12 μL and a spacing of 300 s. Heat from the pre-injection was not used during fitting. The data were fit using a one-site binding model available in the Origin® ITC data analysis software (MicroCal Origin® V5.0, MicroCal Software, Northampton, Mass.). Error values obtained from the MicroCal Origin® V5.0 software were averaged and reported. […]

HSP70 = molecular target: T2, HSP70 (Homo sapiens, UniProt P0DMV8, E110D); test: ITC of HSP70 preincubated with competing compound; format: binding; details: ITC competition
T2 construct: His6 (N); made in house; host or cells: E. coli BL21 Star (DE3)
Excerpt: FIGS. 3A-3L illustrate that PET-16 binds directly to ADP-bound HSP70 and DnaK. Specifically, FIGS. 3A-3H are isothermal calorimetric titration (ITC) assays of the indicated compounds (NRLLLTG—SEQ ID NO: 7, PES or PET-16) with purified HSP70-ADP, DnaK-ADP or HSP70-ATP proteins. The data are representative of three independent experiments. FIGS. 3I and 3J are ITC assays for the interaction between HSP70 (aa 386-616 of SEQ ID NO: 2) protein and PET-16 (I) or TPP (J). Binding constants (Kd values) are shown (average and s.d. from three independent experiments). PET-16 also binds directly to the purified, full-length, nucleotide-free HSP70 protein, with a reported dissociation constant of 5.2+/−0.1 micromolar, which is the average and standard deviation from two independent experiments (data not shown). FIG. 3K is ITC assay of HSP70 protein preincubated with ADP and PES for 1 h. The mixture was titrated into the sample cell containing PET-16. The data are representative of three independent ITC experiments. FIG. 3L are western blots of human lung carcinoma (H1299) cells that were pretreated with DMSO or excess (8×) PET-16 for 1 h prior to the addition of 20 μM B-PES for 5 h and examined for the expression of HSP70 or BCL-xL. B-PES-containing complexes were captured by Avidin resins and immunoblotted either with anti-HSP70 or anti-BCL-xL antibody. […]

[1] = tested on: melanoma tumor cell line WM989; test: Combination with BRAF inhibitor Vemurafenib, viability; format: cell-based, human
Excerpt: FIG. 6 is a line graph illustrating that PET-16 synergizes with the BRAF inhibitor Vemurafenib to reduce the viability of the melanoma tumor cell line WM989 (▪). WM989 cells treated singularly with Vemurafenib are depicted by (●). No synergy was detected between Vemurafenib and PES-Cl.

[2] = ITC, wild-type full-length ADP-bound HSP70

T1 sequence (P0DMV8 whole entry E110D, the tested form may be a part): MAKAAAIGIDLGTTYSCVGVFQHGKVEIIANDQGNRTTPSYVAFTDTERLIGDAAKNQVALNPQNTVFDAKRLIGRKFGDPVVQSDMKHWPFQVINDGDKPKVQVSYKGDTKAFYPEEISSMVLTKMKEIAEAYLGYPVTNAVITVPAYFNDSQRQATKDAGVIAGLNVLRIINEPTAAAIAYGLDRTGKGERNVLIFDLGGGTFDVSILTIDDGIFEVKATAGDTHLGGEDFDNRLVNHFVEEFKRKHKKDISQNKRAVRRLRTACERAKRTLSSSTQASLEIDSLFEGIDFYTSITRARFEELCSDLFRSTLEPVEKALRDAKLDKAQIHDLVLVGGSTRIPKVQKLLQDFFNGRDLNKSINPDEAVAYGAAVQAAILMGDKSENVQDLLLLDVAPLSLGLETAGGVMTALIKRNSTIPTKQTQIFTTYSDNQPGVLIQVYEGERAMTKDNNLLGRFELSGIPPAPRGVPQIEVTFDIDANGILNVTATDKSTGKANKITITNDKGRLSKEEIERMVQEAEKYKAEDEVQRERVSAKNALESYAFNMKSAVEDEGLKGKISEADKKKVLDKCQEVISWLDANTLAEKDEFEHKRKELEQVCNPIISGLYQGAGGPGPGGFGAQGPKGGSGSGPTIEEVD
T2 sequence (P0DMV8 whole entry E110D): as the sequence (P0DMV8 whole entry E110D, the tested form may be a part) above

SMILES	Kd (ADP-HSP70 (WT, aa 1-641); [2]) [µM]	binding to HSP70 after pre-incubation with the other compound (PES / PET-16) (HSP70)	Kd (ADP-HSP70 (WT, aa 1-641); dimeric ADP-bound HSP70 (N=0.5)) [µM]	Kd (ADP-HSP70 (WT, aa 1-641); tetrameric ADP-bound HSP70 (N=0.25)) [µM]	synergy with PLX4032 (Vemurafenib) [1]
NS(=O)(=O)C#Cc1ccccc1 [PES, 2-Phenylethynesulfonamide, reference compound]	~5.7	impaired			
C(#C[P+](c1ccccc1)(c1ccccc1)c1ccccc1)c1ccccc1.[Br-] [PET-16, triphenyl(phenylethynyl)phosphonium bromide]	~3.8	markedly reduced	3.8	1.3	able to synergize
